In patent US6197769A, “Indazole amide compounds as serotoninergic agents” (Aziende Chimiche Riunite Angelini Francesco A.C.R.A.F. …, priority 1997, dated 2001):
Structures can show the parent of a compound that is named as a salt.

Biological target: T1, 5-HT4 Receptor (Rattus norvegicus, UniProt Q62758)
T1 construct: serotonin-induced relaxation of rat oesophageal tunica; from tissue; host or cells: rat oesophageal tunica
Experiment: Antagonistic action on 5-HT4 receptor: inhibition of serotonin-induced relaxation of rat oesophageal tunica pre-contracted with carbachol
Conditions: antagonism, read-out: pA2 (converted)
Method: Antagonistic Action on 5-HT4 Receptor
The antagonistic action of the compounds of the formula (I) was evaluated by testing the influence of the compound under evaluation on serotonin-induced relaxation of rat oesophageal tunica pre-contracted with carbachol according to the method described by J. D. Gale et al. in "Br. J. Pharmacol.", 111, 332-338, (1994).

T1 sequence (Q62758 whole entry): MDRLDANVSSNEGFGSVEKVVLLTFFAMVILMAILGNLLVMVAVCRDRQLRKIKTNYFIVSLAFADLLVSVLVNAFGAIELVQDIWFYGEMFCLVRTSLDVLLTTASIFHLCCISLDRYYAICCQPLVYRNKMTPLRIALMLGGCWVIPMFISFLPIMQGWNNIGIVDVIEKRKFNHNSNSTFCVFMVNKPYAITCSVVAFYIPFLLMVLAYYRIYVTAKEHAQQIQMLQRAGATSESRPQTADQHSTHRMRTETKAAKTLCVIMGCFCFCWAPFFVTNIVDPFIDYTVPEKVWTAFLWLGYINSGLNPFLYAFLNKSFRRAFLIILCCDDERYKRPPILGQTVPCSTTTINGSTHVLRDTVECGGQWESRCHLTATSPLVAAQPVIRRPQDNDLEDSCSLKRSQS

Compound | Kb [nM]
CC(C)n1nc(C(=O)NCC2CCN(CCc3ccccc3)CC2)c2ccccc21 [AFR 306, N3-{[1-(2-phenylethyl)-4-piperidinyl]methyl}-1-isopropyl-1H-3-indazolecarboxamide hydrochloride] | 0.437
CC(C)n1nc(C(=O)NCC2CCN(CCCCc3ccccc3)CC2)c2ccccc21 [AFR 603, N3-{[1-(4-phenylbutyl)-4-piperidinyl]methyl}-1-isopropyl-1H-3-indazolecarboxamide oxalate] | 0.759
CC(C)n1nc(C(=O)NCC2CCN(CCC3CCCCC3)CC2)c2ccccc21 [AFR 604, N3-{[1-(2-cyclohexylethyl)-4-piperidinyl]methyl}-1-isopropyl-1H-3-indazolecarboxamide hydrochloride] | 6.46
CC(C)n1nc(C(=O)NCC2CCN(CCc3ccccn3)CC2)c2ccccc21 [AFR 605, N3-({1-[2-(2-pyridinyl)ethyl]4-piperidinyl}methyl)-1-isopropyl-1H-3-indazolecarboxamide hydrochloride] | 0.0158
